Measurements from patent publication US12454529B2, “Piperazine cyclic ureas” (SIRONAX LTD., priority 2020, dated 2025).

These molecules were tested on HT-29 cells (assay: HT-29 cell necrosis/necroptosis inhibition (TNF-α + SMAC mimetic + zVAD-FMK; CellTiter-Glo cell viability)). Conditions: Homo sapiens; HT-29 cells, TNF-α 10 ng/ml + SMAC mimetic 6 μM + zVAD-FMK 10 μM, 20 hours; geometric mean, 10 points in duplicate; read-out: EC50 (Cell activity; Necrosis/Necroptosis Inhibitory Activity, Compounds 1-142).
Format: cell-based
Method in brief: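 Necroptosis was driven by TNF-α 10 ng/ml plus SMAC mimetic 6 μM and zVAD-FMK 10 μM in serum-free medium, with compounds as a 10-point threefold titration. After 20 h at 37 °C, ATP-based luminescence was read; EC50 values are geometric means of duplicate curves.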
`Cc1ncc(-c2nc(N3CCN(C(=O)N4N=CC[C@H]4c4cc(F)cc(F)c4)CC3)ncc2F)s1` [Compound 56, (S)-(5-(3,5-difluorophenyl)-4,5-dihydro-1H-pyrazol-1-yl)(4-(5-fluoro-4-(2-methylthiazol-5-yl)pyrimidin-2-yl)piperazin-1-yl)methanone] was tested, and the EC50 was 0.0001 to 0.1 µM.
In the case of `O=C(N1CCN(c2nccc(-c3cc[nH]n3)n2)CC1)N1N=CC[C@H]1c1cccc(F)c1` [Compound 35, (S)-(4-(4-(1H-pyrazol-3-yl)pyrimidin-2-yl)piperazin-1-yl)(5-(3-fluorophenyl)-4,5-dihydro-1H-pyrazol-1-yl)methanone], the EC50 is reported as 0.0001 to 0.1 µM.
`Cc1nn(CCO)c(C)c1-c1nc(N2CCN(C(=O)N3N=CC[C@H]3c3cc(F)cc(F)c3)CC2)ncc1F` [Compound 118, (S)-(5-(3,5-difluorophenyl)-4,5-dihydro-1H-pyrazol-1-yl)(4-(5-fluoro-4-(1-(2-hydroxyethyl)-3,5-dimethyl-1H-pyrazol-4-yl)pyrimidin-2-yl)piperazin-1-yl)methanone] gave an EC50 of 0.0001 to 0.1 µM.
Molecule `Cc1nn(-c2nc(N3CCN(C(=O)N4N=CC[C@H]4c4cc(F)cc(C#N)c4)CC3)ncc2F)c(=O)n1C` [Compound 96, (S)-3-(1-(4-(4-(3,4-dimethyl-5-oxo-4,5-dihydro-1H-1,2,4-triazol-1-yl)-5-fluoropyrimidin-2-yl)piperazine-1-carbonyl)-4,5-dihydro-1H-pyrazol-5-yl)-5-fluorobenzonitrile] has an EC50 of 0.0001 to 0.1 µM.
`O=C(N1CCN(c2nccc(-n3nnnc3C(F)(F)F)n2)CC1)N1N=CC[C@H]1c1ccccc1` [Compound 104, (S)-(5-phenyl-4,5-dihydro-1H-pyrazol-1-yl)(4-(4-(5-(trifluoromethyl)-1H-tetrazol-1-yl)pyrimidin-2-yl)piperazin-1-yl)methanone] gave an EC50 of 0.0001 to 0.1 µM.
`Cc1n[nH]c(C)c1-c1nc(N2CCN(C(=O)N3N=CC[C@H]3c3cc(F)cc(F)c3)CC2)ncc1F` [Compound 93, (S)-(5-(3,5-difluorophenyl)-4,5-dihydro-1H-pyrazol-1-yl)(4-(4-(3,5-dimethyl-1H-pyrazol-4-yl)-5-fluoropyrimidin-2-yl)piperazin-1-yl)methanone] gave an EC50 of 0.0001 to 0.1 µM.
`Cn1ncnc1-c1nc(N2CCN(C(=O)N3N=CC[C@H]3c3cc(F)cc(F)c3)CC2)ncc1F` [Compound 65, (S)-(5-(3,5-difluorophenyl)-4,5-dihydro-1H-pyrazol-1-yl)(4-(5-fluoro-4-(1-methyl-1H-1,2,4-triazol-5-yl)pyrimidin-2-yl)piperazin-1-yl)methanone] gave an EC50 of 0.0001 to 0.1 µM.
For `O=C(N1CCN(c2ncc(F)c(-c3ccc(O)nc3)n2)CC1)N1N=CC[C@H]1c1cc(F)cc(F)c1` [Compound 25, (S)-(5-(3,5-difluorophenyl)-4,5-dihydro-1H-pyrazol-1-yl)(4-(5-fluoro-4-(6-hydroxypyridin-3-yl)pyrimidin-2-yl)piperazin-1-yl)methanone], the EC50 was 0.0001 to 0.1 µM.
For `Cc1nnc(-c2nc(N3CCN(C(=O)N4N=CC[C@H]4c4cc(F)cc(F)c4)CC3)ncc2F)s1` [Compound 63, (S)-(5-(3,5-difluorophenyl)-4,5-dihydro-1H-pyrazol-1-yl)(4-(5-fluoro-4-(5-methyl-1,3,4-thiadiazol-2-yl)pyrimidin-2-yl)piperazin-1-yl)methanone], the EC50 was 0.0001 to 0.1 µM.
Work on `Cc1n[nH]c(C)c1-c1nc(N2CCN(C(=O)N3N=CC[C@H]3c3cc(F)cc(C#N)c3)CC2)ncc1F` [Compound 94, (S)-3-(1-(4-(4-(3,5-dimethyl-1H-pyrazol-4-yl)-5-fluoropyrimidin-2-yl)piperazine-1-carbonyl)-4,5-dihydro-1H-pyrazol-5-yl)-5-fluorobenzonitrile] yielded an EC50 of 0.0001 to 0.1 µM.
`N#Cc1cc(F)cc([C@@H]2CC=NN2C(=O)N2CCN(c3ncc(F)c(-n4cnc(C#N)n4)n3)CC2)c1` [Compound 125, (S)-1-(2-(4-(5-(3-cyano-5-fluorophenyl)-4,5-dihydro-1H-pyrazole-1-carbonyl)piperazin-1-yl)-5-fluoropyrimidin-4-yl)-1H-1,2,4-triazole-3-carbonitrile] was tested, and the EC50 was 0.0001 to 0.1 µM.
`COc1cc(-c2nc(N3CCN(C(=O)N4N=CC[C@H]4c4cc(F)cc(F)c4)CC3)ncc2F)nc(OC)n1` [Compound 19, (S)-(5-(3,5-difluorophenyl)-4,5-dihydro-1H-pyrazol-1-yl)(4-(5-fluoro-2′,6′-dimethoxy-[4,4′-bipyrimidin]-2-yl)piperazin-1-yl)methanone] gave an EC50 of 0.0001 to 0.1 µM.

Same assay, conditions: Homo sapiens; HT-29 cells, TNF-α 10 ng/ml + SMAC mimetic 6 μM + zVAD-FMK 10 μM, 20 hours; geometric mean, 10 points in duplicate; read-out: EC50 (Cell activity; Necrosis/Necroptosis Inhibitory Activity, Compounds 143-323)
In the case of `Cn1nc(C(N)=O)nc1-c1nc(N2CCN(C(=O)N3N=CCC3c3cc(F)cc(F)c3)CC2)ncc1F` (centres unmarked) [Compound 225, 5-(2-(4-(5-(3,5-difluorophenyl)-4,5-dihydro-1H-pyrazole-1-carbonyl)piperazin-1-yl)-5-fluoropyrimidin-4-yl)-1-methyl-1H-1,2,4-triazole-3-carboxamide], the EC50 is reported as 0.0001 to 0.1 µM.
For `CCS(=O)(=O)c1c(C)nn(-c2nc(N3CCN(C(=O)N4N=CC[C@H]4c4cc(F)cc(C#N)c4)CC3)ncc2F)c1C` [Compound 205, (S)-3-(1-(4-(4-(4-(ethylsulfonyl)-3,5-dimethyl-1H-pyrazol-1-yl)-5-fluoropyrimidin-2-yl)piperazine-1-carbonyl)-4,5-dihydro-1H-pyrazol-5-yl)-5-fluorobenzonitrile], the EC50 was 0.0001 to 0.1 µM.
`CCn1ncnc1-c1nc(N2CCN(C(=O)N3N=CC[C@H]3c3cc(F)cc(C#N)c3)CC2)ncc1Cl` [Compound 168, (S)-3-(1-(4-(5-chloro-4-(1-ethyl-1H-1,2,4-triazol-5-yl)pyrimidin-2-yl)piperazine-1-carbonyl)-4,5-dihydro-1H-pyrazol-5-yl)-5-fluorobenzonitrile] showed an EC50 of 0.0001 to 0.1 µM.
`Cc1nc(C(F)F)nn1-c1nc(N2CCN(C(=O)N3N=CC[C@H]3c3cc(F)cc(C#N)c3)CC2)ncc1F` [Compound 245, (S)-3-(1-(4-(4-(3-(difluoromethyl)-5-methyl-1H-1,2,4-triazol-1-yl)-5-fluoropyrimidinyl)piperazine-1-carbonyl)-4,5-dihydro-1H-pyrazol-5-yl)-5-fluorobenzonitrile] showed an EC50 of 0.0001 to 0.1 µM.
`Cc1nn(-c2nc(N3CCN(C(=O)N4N=CC[C@H]4c4cc(F)cc(C#N)c4)CC3)ncc2F)c(C)c1S(C)(=O)=O` [Compound 204, (S)-3-(1-(4-(4-(3,5-dimethyl-4-(methylsulfonyl)-1H-pyrazol-1-yl)-5-fluoropyrimidinyl)piperazine-1-carbonyl)-4,5-dihydro-1H-pyrazol-5-yl)-5-fluorobenzonitrile] gave an EC50 of 0.0001 to 0.1 µM.
`Cc1nc(C)n(-c2nccc(N3CCN(C(=O)N4N=CC[C@H]4c4cc(F)cc(C#N)c4)CC3)n2)n1` [Compound 244, (S)-3-(1-(4-(2-(3,5-dimethyl-1H-1,2,4-triazol-1-yl)pyrimidin-4-yl)piperazine-1-carbonyl)-4,5-dihydro-1H-pyrazol-5-yl)-5-fluorobenzonitrile] showed an EC50 of 0.0001 to 0.1 µM.
For `Cc1cnn(C)c1-c1cc(N2CCN(C(=O)N3N=CCC3c3cncs3)CC2)c(F)cn1` (centres unmarked) [Compound 293, (4-(2-(1,4-dimethyl-1H-pyrazol-5-yl)-5-fluoropyridin-4-yl)piperazin-1-yl)(5-(thiazol-5-yl)-4,5-dihydro-1H-pyrazol-1-yl)methanone], the EC50 was 0.0001 to 0.1 µM.
`O=C(N1CCN(c2ncc(F)c(-n3nccc3C(F)(F)F)n2)CC1)N1N=CC[C@H]1c1cncc(F)c1` [Compound 308, (S)-(4-(5-fluoro-4-(5-(trifluoromethyl)-1H-pyrazol-1-yl)pyrimidin-2-yl)piperazin-1-yl)(5-(5-fluoropyridin-3-yl)-4,5-dihydro-1H-pyrazol-1-yl)methanone] showed an EC50 of 0.0001 to 0.1 µM.
Molecule `O=C(N1CCN(c2ncc(F)c(-n3cnc(C(F)(F)F)n3)n2)CC1)N1N=CC[C@H]1c1cc(F)cc(F)c1` [Compound 305, (S)-(5-(3,5-difluorophenyl)-4,5-dihydro-1H-pyrazol-1-yl)(4-(5-fluoro-4-(3-(trifluoromethyl)-1H-1,2,4-triazol-1-yl)pyrimidin-2-yl)piperazin-1-yl)methanone] has an EC50 of 0.0001 to 0.1 µM.
With `[2H]C1(c2cc(F)cc(F)c2)CC=NN1C(=O)N1CCN(c2ncc(F)c(-n3nc(C)nc3C)n2)CC1` (centres unmarked) [Compound 262, (5-(3,5-difluorophenyl)-4,5-dihydro-1H-pyrazol-1-yl-5-d)(4-(4-(3,5-dimethyl-1H-1,2,4-triazol-1-yl)-5-fluoropyrimidin-2-yl)piperazin-1-yl)methanone] the EC50 was 0.0001 to 0.1 µM.
For `Cc1nn(-c2ccnc(N3CCN(C(=O)N4N=CC[C@H]4c4cc(F)cc(C#N)c4)CC3)n2)c(C)c1C(N)=O` [Compound 276, (S)-1-(2-(4-(5-(3-cyano-5-fluorophenyl)-4,5-dihydro-1H-pyrazole-1-carbonyl)piperazin-1-yl)pyrimidin-4-yl)-3,5-dimethyl-1H-pyrazole-4-carboxamide], the EC50 was 0.0001 to 0.1 µM.
With `Cc1cnn(C)c1-c1ncc(F)c(N2CCN(C(=O)N3N=CCC3c3cncs3)CC2)n1` (centres unmarked) [Compound 159, (4-(2-(1,4-dimethyl-1H-pyrazol-5-yl)-5-fluoropyrimidin-4-yl)piperazin-1-yl)(5-(thiazol-5-yl)-4,5-dihydro-1H-pyrazol-1-yl)methanone] the EC50 was 0.0001 to 0.1 µM.
Work on `N#Cc1cnn(-c2ncc(F)c(N3CCN(C(=O)N4N=CC[C@H]4c4cc(F)cc(F)c4)CC3)n2)c1` [Compound 218, (S)-1-(4-(4-(5-(3,5-difluorophenyl)-4,5-dihydro-1H-pyrazole-1-carbonyl)piperazin-1-yl)-5-fluoropyrimidin-2-yl)-1H-pyrazole-4-carbonitrile] yielded an EC50 of 0.0001 to 0.1 µM.
For `Cn1cnnc1-c1nc(N2CCN(C(=O)N3N=CC[C@H]3c3cc(F)cc(C#N)c3)CC2)ncc1F` [Compound 197, (S)-3-fluoro-5-(1-(4-(5-fluoro-4-(4-methyl-4H-1,2,4-triazol-3-yl)pyrimidin-2-yl)piperazine-1-carbonyl)-4,5-dihydro-1H-pyrazol-5-yl)benzonitrile], the EC50 was 1 to 10 µM.
